Measurements as given in paper PMC2866539, “HLA Class I Binding 9mer Peptides from Influenza A Virus Induce CD4^+ T Cell Responses” (PLoS ONE, 2010).
Where no end group is shown, it is not given here.

What was measured:
Experiment in all cases: biochemical
Type in all cases: binding
DRA1*0101/DRB1*0401 = biological target: T1, DRA1*0101/DRB1*0401 (Homo sapiens, UniProt P01903+P01911, A100K/A169T/F76Y/I96L/K127E/L162R/M171V/N62H/P40V/Q125Y/R42H/S133A/S149N/S66Y/V115G/V209L/W38E)
T1 construct: made in house

DRA1*0101/DRB1*0302 = DRA1*0101/DRB1*0302 (Homo sapiens, UniProt P01903+P01911, A100K/A102G/A103R/A169T/D57E/F76Y/I96L/K41T/L162R/M171V/P40S/Q125H/Q178H/Q39Y/R42S/S66N/T106N/T262R/V115G/W38E/Y61H)
DRA1*0101/DRB3*0301 = DRA1*0101/DRB3*0301 (Homo sapiens, UniProt P01903+P79483, A169T/A212P/D57E/G115V/L67V/Q178H/R103Q/R40L/Y55F)
DRA1*0101/DRB3*0301, sequence (P01903 26-254 limits assumed): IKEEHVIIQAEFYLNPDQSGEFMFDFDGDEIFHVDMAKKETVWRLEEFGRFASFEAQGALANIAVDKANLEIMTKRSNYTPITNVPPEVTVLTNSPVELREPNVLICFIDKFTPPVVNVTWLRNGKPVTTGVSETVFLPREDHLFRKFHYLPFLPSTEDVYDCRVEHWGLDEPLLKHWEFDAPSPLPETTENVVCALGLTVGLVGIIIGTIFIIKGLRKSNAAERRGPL
DRA1*0101/DRB3*0301, sequence (P79483 30-266 R40L/Y55F/D57E/L67V/R103Q/G115V/A169T/Q178H/A212P limits assumed): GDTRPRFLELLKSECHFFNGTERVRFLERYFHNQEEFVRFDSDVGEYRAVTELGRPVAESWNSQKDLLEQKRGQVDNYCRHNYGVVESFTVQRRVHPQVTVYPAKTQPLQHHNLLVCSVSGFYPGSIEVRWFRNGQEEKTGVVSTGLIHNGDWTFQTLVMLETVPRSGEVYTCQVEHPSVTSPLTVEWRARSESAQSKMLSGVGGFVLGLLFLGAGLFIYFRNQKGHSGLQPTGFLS

DRA1*0101/DRB1*0301 = DRA1*0101/DRB1*0301 (Homo sapiens, UniProt P01903+P01911, A100K/A102G/A103R/A169T/F55Y/I96L/K41T/L162R/M171V/P40S/Q125H/Q178H/Q39Y/R42S/S66N/T106N/T262R/W38E/Y61H)
DRA1*0101/DRB1*0301, sequence (P01903 26-254 limits assumed, other chains not shown): as the sequence (P01903 26-254 limits assumed) above

DRA1*0101/DRB1*0101 = biological target: T2, DRA1*0101/DRB1*0101 (Homo sapiens, UniProt P01903+P01911, A100R/D57E/F55L/F60I/F76Y/I96L/L162R/M171V/P40L/Q125E/R42F/V115G/Y59C)
T2 construct: made in house

YILLKKILSSRFNQM [hypothetical protein 239–253, reference compound]
Kd (DRA1*0101/DRB1*0401): 107 nM | Kd (DRA1*0101/DRB1*0302): 156 nM | Kd (DRA1*0101/DRB3*0301): 3 nM | Kd (DRA1*0101/DRB1*0301): 20 nM | Kd (DRA1*0101/DRB1*0101): 435 nM
